By IC50 is commonly meant the concentration that gives 50% inhibition.

Experimental findings from EP4685143A1 (Vivozon,Inc., priority 2023, dated 2024) are described below.

For the test, the target named is T1, human HDAC6 enzyme (Homo sapiens, UniProt Q9UBN7).
T1 sequence (Q9UBN7 1-1215): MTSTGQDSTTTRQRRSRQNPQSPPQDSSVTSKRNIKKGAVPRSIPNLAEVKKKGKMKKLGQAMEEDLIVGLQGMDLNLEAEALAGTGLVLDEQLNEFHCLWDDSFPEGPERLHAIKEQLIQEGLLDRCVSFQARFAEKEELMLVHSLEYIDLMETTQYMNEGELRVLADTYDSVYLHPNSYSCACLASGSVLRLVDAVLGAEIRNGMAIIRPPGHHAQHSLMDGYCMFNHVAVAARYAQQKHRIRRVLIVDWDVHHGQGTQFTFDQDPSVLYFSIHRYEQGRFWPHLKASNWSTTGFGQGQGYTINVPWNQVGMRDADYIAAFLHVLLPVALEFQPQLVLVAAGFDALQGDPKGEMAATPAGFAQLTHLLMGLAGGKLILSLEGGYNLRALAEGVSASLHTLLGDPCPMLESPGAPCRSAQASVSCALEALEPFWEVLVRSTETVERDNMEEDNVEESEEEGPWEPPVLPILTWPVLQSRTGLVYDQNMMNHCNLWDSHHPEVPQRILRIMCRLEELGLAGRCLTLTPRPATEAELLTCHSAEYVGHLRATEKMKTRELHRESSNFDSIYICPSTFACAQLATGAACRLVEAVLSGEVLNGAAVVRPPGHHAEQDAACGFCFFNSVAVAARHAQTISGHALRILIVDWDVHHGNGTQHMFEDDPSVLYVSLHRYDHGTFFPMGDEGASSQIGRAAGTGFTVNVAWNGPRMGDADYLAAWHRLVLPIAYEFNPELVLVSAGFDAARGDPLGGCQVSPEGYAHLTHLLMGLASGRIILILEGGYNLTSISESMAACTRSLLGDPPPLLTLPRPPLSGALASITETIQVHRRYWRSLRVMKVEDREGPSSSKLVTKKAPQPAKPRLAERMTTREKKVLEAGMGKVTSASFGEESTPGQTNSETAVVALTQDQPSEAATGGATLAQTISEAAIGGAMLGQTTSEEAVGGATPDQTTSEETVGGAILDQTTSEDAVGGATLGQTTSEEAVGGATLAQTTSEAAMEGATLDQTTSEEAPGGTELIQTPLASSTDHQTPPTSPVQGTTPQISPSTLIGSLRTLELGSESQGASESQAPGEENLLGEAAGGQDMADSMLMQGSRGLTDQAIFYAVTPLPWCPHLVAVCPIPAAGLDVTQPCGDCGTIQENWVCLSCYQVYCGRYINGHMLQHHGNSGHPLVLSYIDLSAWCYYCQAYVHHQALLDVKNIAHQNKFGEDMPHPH
The test can be described thus: Fluorescence-based enzyme activity assay. Type of test: biochemical. The conditions noted are these: substrate with fluorescent peptide of p53 residues 379-382, 30°C for 1 hour. How it is done:
Experimental Example 1: Fluorescence-based enzyme activity assay
In order to measure the inhibitory effect of the compounds on the activity of histone deacetylase 6 (HDAC6), an enzyme activity assay was performed to evaluate the enzyme activity by reacting the human HDAC6 enzyme with a substrate to which a fluorescent peptide of p53 residues 379-382 was attached. The test compounds were dissolved in 100% DMSO at a concentration of 10 mM to prepare a stock solution. A starting concentration of 30 µM was prepared from the stock solution, followed by 1/3 serial dilutions to prepare the test buffer solution. Trichostatin A (TSA)-which is the reference compound used to confirm the validity of the experiment-was serially diluted by 1/3 with the test buffer solution, starting from the highest concentration of 1 µM. To react the test compounds and TSA prepared in the test buffer with the HDAC6 enzyme, they were dispensed into a 96-well black plate and spin-down of the plate was performed. Then, the reaction was carried out at room temperature for 10 minutes. After 10 minutes, the substrate was dispensed, and the plate was sealed. The reaction was carried out at 30°C for 1 hour under light-blocking conditions. Fluorescence values were measured using a plate reader (wavelength: excitation/emission = 360/460 nm). The fluorescence measurements were normalized to the HDAC6 enzyme-treated group as 100% and the untreated group as 0%, respectively. […]

`O=c1cc(-c2nnc(C(F)F)o2)ccn1CC#Cc1ccccc1` [Example 1, 4-(5-(difluoromethyl)-1,3,4-oxadiazol-2-yl)-1-(3-phenylprop-2-yn-1-yl)pyridin-2(1H)-one]: the IC50 is under 100 nM. `O=c1cc(-c2noc(C(F)(F)F)n2)ccn1CC#Cc1ccccc1` [Example 2, 1-(3-phenylprop-2-yn-1-yl)-4-(5-(trifluoromethyl)-1,2,4-oxadiazol-3-yl)pyridin-2(1H)-one] yielded an IC50 of 500 to 1000 nM.

Compound `O=c1cc(-c2noc(C(F)(F)F)n2)ccn1CC#Cc1ccncc1` [Example 3, 1-(3-(pyridin-4-yl)prop-2-yn-1-yl)-4-(5-(trifluoromethyl)-1,2,4-oxadiazol-3-yl)pyridin-2(1H)-one] yielded an IC50 of 100 to 500 nM. To `O=c1cc(-c2noc(C(F)(F)F)n2)ccn1CC#Cc1cccnc1` [Example 4, 1-(3-(pyridin-3-yl)prop-2-yn-1-yl)-4-(5-(trifluoromethyl)-1,2,4-oxadiazol-3-yl)pyridin-2(1H)-one] belongs 100 to 500 nM. The value for `O=c1cc(-c2noc(C(F)(F)F)n2)ccn1CC#Cc1ccccn1` [Example 5, 1-(3-(pyridin-2-yl)prop-2-yn-1-yl)-4-(5-(trifluoromethyl)-1,2,4-oxadiazol-3-yl)pyridin-2(1H)-one] was 100 to 500 nM; that for `O=c1cc(-c2noc(C(F)(F)F)n2)ccn1CC#Cc1ccccc1F` [Example 6, 1-(3-(2-fluorophenyl)prop-2-yn-1-yl)-4-(5-(trifluoromethyl)-1,2,4-oxadiazol-3-yl)pyridin-2(1H)-one] was 500 to 1000 nM; that for `O=c1cc(-c2nnc(C(F)F)o2)ccn1CC#Cc1ccncc1` [Example 8, 4-(5-(difluoromethyl)-1,3,4-oxadiazol-2-yl)-1-(3-(pyridin-4-yl)prop-2-yn-1-yl)pyridin-2(1H)-one] was under 100 nM. Compound `O=c1cc(-c2nnc(C(F)F)o2)ccn1CC#Cc1cccnc1` [Example 9, 4-(5-(difluoromethyl)-1,3,4-oxadiazol-2-yl)-1-(3-(pyridin-3-yl)prop-2-yn-1-yl)pyridin-2(1H)-one] came in with a half-inhibitory concentration (IC50) of under 100 nM. As for `O=c1cc(-c2nnc(C(F)F)o2)ccn1CC#Cc1ccccn1` [Example 10, 4-(5-(difluoromethyl)-1,3,4-oxadiazol-2-yl)-1-(3-(pyridin-2-yl)prop-2-yn-1-yl)pyridin-2(1H)-one], the half-maximal inhibitory concentration (IC50) was under 100 nM. To `O=c1cc(-c2nnc(C(F)F)o2)ccn1CC#Cc1ccc(F)cc1` [Example 11, 4-(5-(difluoromethyl)-1,3,4-oxadiazol-2-yl)-1-(3-(4-fluorophenyl)prop-2-yn-1-yl)pyridin-2(1H)-one] belongs under 100 nM; to `O=c1cc(-c2nnc(C(F)F)o2)ccn1CC#Cc1cccc(F)c1` [Example 12, 4-(5-(difluoromethyl)-1,3,4-oxadiazol-2-yl)-1-(3-(3-fluorophenyl)prop-2-yn-1-yl)pyridin-2(1H)-one], under 100 nM; to `O=c1cc(-c2nnc(C(F)F)o2)ccn1CC#Cc1ccccc1F` [Example 13, 4-(5-(difluoromethyl)-1,3,4-oxadiazol-2-yl)-1-(3-(2-fluorophenyl)prop-2-yn-1-yl)pyridin-2(1H)-one], under 100 nM. The value for `O=c1cc(-c2nnc(C(F)F)o2)ccn1CC#Cc1ccc(Cl)cc1` [Example 14, 1-(3-(4-chlorophenyl)prop-2-yn-1-yl)-4-(5-(difluoromethyl)-1,3,4-oxadiazol-2-yl)pyridin-2(1H)-one] was under 100 nM.

For the compound `O=c1cc(-c2nnc(C(F)F)o2)ccn1CC#Cc1ccccc1Cl` [Example 16, 1-(3-(2-chlorophenyl)prop-2-yn-1-yl)-4-(5-(difluoromethyl)-1,3,4-oxadiazol-2-yl)pyridin-2(1H)-one], the IC50 is under 100 nM. The compound `COc1cccc(C#CCn2ccc(-c3nnc(C(F)F)o3)cc2=O)c1` [Example 21, 4-(5-(difluoromethyl)-1,3,4-oxadiazol-2-yl)-1-(3-(3-methoxyphenyl)prop-2-yn-1-yl)pyridin-2(1H)-one] displayed an IC50 of under 100 nM.
